Test results as given in US11478474B2, “2-(3′-(hydroxymethyl)-1-methyl-5-((5-(2-methyl-4-(oxetan-3-yl)piperazin-1-yl)pyridin-2-yl)amino)-6-oxo-1,6-dihydro-[3,4′-bipyridin]-2′-yl)-7,7-dimethyl-7,8-dihydro-2H-cyclopenta[4,5]pyrrolo[1,2-a]pyrazin-1(6H)-one as a BTK inhibitor” (HUTCHISON MEDIPHARMA LIMITED, priority 2020, dated 2022).

Tests used:
BTK recombinant protein = BTK recombinant protein (Homo sapiens (Human), UniProt Q06187); assay: Determination of biochemical BTK (Z'-LYTE kinase assay)
Description: Example 2 Determination of Biochemical BTK
(§1) 1. Reagents and Materials
BTK recombinant protein: Invitrogen, Cat #PV3363;
Z′-LYTE® kinase test kit-tyrosine 1 peptide: Invitrogen, Cat #PV3190;
Z′-LYTE® biochemical assay employs a fluorescence resonance energy transfer (FRET)—based, coupled-enzyme format and is based on the differential sensitivity of phosphorylated and non-phosphorylated peptides to proteolytic cleavage. Both ends of the short peptide substrate are labeled with two fluorescent groups to form a FRET paired combination. In the primary reaction (the Kinase Reaction), the kinase transfers the γ-phosphate of ATP to a single […] residue on the short peptide substrate. In the secondary reaction (the development reaction), the non-phosphorylated short peptides were recognized and cleaved by a site-specific protease (the development reagent). Phosphorylated short peptides can resist such cleavage. Cleavage of short peptides can disrupt the donor (such as coumarin) and receptor fluorophores (fluorescein) on the short peptides, while the phosphorylated short peptides can maintain FRET. The calculation method of the ratio is as follows, and the ratio of the respective emission signals generated by the donor fluorophores emitted (after excitation at 400 nm) to the receptors is calculated. Emission signal ratio=emitted light by coumarin (445 nm)/emitted light by fluorescein (520 nm). If the FRET short peptide is phosphorylated (such as no kinase inhibitor), the emitted light ratio will remain in a lower level. If the FRET short peptide is non-phosphorylated (such as kinase inhibitor), the emitted light ratio will be in a higher level. In this way, the inhibitory effects of different compound inhibitors on BTK kinase activity would be distinguished.
The experiment were carried out according to the instructions of the Z′-LYTE® kinase test kit-tyrosine 1 peptide. Reagent preparation: 1.33× kinase buffer: 5× kinase buffer was diluted with water to 1.33× kinase buffer; an enzyme solution: the kinase was dissolved in 1.33× kinase buffer with the final working concentration being 3.32 nM; a short peptide solution: a short peptide stock solution (1 mM dissolved in DMSO) was dissolved in 1.33× kinase buffer with the final working concentration being 2 μM; Z′-LYTE Tyr01 phosphorylated short peptide solution, 0.6 μl of stock solution (1 mM dissolved in DMSO) was dissolved in 149.4 μl of 1.33× kinase buffer; an ATP solution: an ATP stock solution (10 mM aqueous solution) was dissolved in 1.33× kinase buffer with the final working concentration being 32 μM; a color-developing solution: color-developing solution B was dissolved in color-developing buffer with the final working concentration being 1× color-developing solution; 4× compound preparation: the compound was diluted in 3-fold gradient concentration to finally obtain 4% DMSO aqueous solution containing different concentrations of the compound, with the final working concentration being 3000, 1000, 333.33, 111.11, 37.04, 12.35, 4.12, 1.37 nM, 8 concentration points in total.
Specific steps of the experiment: In the experiment, there were three control groups, each with 8 replicate wells, which were C1 100% inhibition group (no ATP), C2 0% inhibition group (with ATP), and C3 100% phosphorylation group, respectively. 2.5 μl of serially diluted compound was added to each well of a 384-well plate, with double replicate wells, and 4% DMSO solution was added to wells C1, C2, and C3. After that, except for wells C3, 2.5 μl of BTK enzyme solution was added to each remaining well, which was left to stand at 4° C. for 30 minutes. After that, except for wells C3, 2.5 μl of short peptide solution was added to each well, and 5 μl of phosphorylated short peptide solution was added to each of wells C3. 2.5 μl of 1.33× kinase buffer was added to each of wells C1 and C3, and 2.5 μl of ATP solution was added to each of the remaining wells. […]

[1] = target: phosphorylated BTK in Ramos cells (Homo sapiens (Human), UniProt Q06187); assay: Determination of phosphorylated BTK in Ramos cells (BTK phospho-Y223 HTRF); type: cell-based; details: anti-human IgM + hydrogen peroxide stimulation
Sequence of phosphorylated BTK in Ramos cells (Q06187 whole entry): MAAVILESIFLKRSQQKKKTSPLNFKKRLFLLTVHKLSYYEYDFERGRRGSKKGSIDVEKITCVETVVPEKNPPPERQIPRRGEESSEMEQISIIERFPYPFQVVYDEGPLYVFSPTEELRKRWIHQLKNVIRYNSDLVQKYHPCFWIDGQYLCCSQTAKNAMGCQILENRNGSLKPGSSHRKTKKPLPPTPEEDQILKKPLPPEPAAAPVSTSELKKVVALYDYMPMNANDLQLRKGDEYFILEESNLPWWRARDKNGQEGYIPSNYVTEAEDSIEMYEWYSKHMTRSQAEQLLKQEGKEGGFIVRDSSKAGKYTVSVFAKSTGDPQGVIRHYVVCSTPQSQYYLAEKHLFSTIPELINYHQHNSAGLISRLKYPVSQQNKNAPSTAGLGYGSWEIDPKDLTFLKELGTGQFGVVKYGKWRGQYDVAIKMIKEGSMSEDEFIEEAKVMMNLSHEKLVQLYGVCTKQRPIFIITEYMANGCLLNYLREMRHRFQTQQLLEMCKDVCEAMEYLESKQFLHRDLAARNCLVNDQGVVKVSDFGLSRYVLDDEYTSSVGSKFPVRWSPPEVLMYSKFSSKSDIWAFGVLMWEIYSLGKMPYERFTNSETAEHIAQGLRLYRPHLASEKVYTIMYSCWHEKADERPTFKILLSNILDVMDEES
Procedure: Determination of Phosphorylated BTK in Ramos Cells
as §1
Ramos cells: Ramos cells were purchased from American Standard Biological Collection Center ATCC Cell Bank, PRMI 1640 medium containing L-glutamine, 1.5 g/L of sodium bicarbonate, 2.383 g/L of HEPES solution, 0.11 g/L of sodium pyruvate and 4.5 g/L of glucose was used, added 10% fetal bovine serum FBS, and placed in a 5% CO2, 37° C. cell incubator for normal culture;
Phosphorylated BTK HTRF detection kit (BTK phospho-Y223 HTRF kit): Cisbio, Cat #63ADK017PEH;
Ramos cells were starved in PRMI 1640 medium with 1% FBS for 2 hours. The starved Ramos cells were diluted with Hank's balanced salt solution to 5.0×10^6 cells/ml, seeded in a 96-well plate with 20 μL/well (1.0×10^5 cells/well), and cultured in a 5% CO2, 37° C. cell incubator. After culturing for 1 hour, the test compound was diluted with Hank's balanced salt solution in 4-fold gradient to the corresponding concentrations, and then 5 μL/well of the diluted test compound with different concentrations (the final concentrations of the test compound were 3.0, 0.75, 0.188, 0.047, 0.012, 0.0029, 0.0007 and 0.00018 μM, and the final concentration of DMSO was 0.3%, double replicate wells) or 5 μL/well of control solution (1.5% DMSO, 8 replicate wells) were added to 20 μL/well of cell culture system, which incubated together for another hour, then 5 μL/well of a mixed solution of human immunoglobulin M (final concentration was 10 μg/mL) and hydrogen peroxide (final concentration was 3.3 mM) diluted with Hank's balanced salt solution was added to the treating wells for the test compound and the control treating wells for anti-human immunoglobulin M, and 5 μL/well of Hank's balanced salt solution was added to negative control treating wells. The plate was incubated in a 5% CO2, 37° C. cell incubator for 10 minutes.
10 μL/well of cell lysis buffer was added to each well of a 96-well plate, which was mixed well and lysed at room temperature for 30 minutes. 16 μL/well of lysis buffer was pipetted to a new 384 well plate, and then added 4 μL/well of phosphorylated BTK antibody, centrifuged (1000 rpm) for 1 minute, then shaken for 1 minute, further centrifuged (1000 rpm) for 1 minute, and finally placed in a constant temperature incubator overnight. Detection was performed on the next day.
The 384 well plate incubated overnight in the constant temperature incubator was taken out to detect the luminescence signal using the Envision microwell plate reader at the […]. The reading value at 665 nm/615 nm of each well multiplied by 104 was used as the signal value of each well.
The average signal value of the wells supplemented with the mixed solution of human immunoglobulin M (final concentration was 10 μg/mL) and hydrogen peroxide (final concentration was 3.3 mM) without the test compound was regarded as the high value, and the average signal value of the wells without immunoglobulin M stimulation and without the test compound was regarded as the low value. According to the signal value in each well, the inhibition ratio (%) of each concentration of compounds was calculated, and the 205 model in XL-Fit 5.3 software (ID Business Solutions Limited) was used to obtain an IC50 value.
The inhibition ratio is calculated as follows: inhibition ratio (%)=100%−{(treating well for the test compound−negative control treating well)/(control treating well for anti-human immunoglobulin M−negative control treating well)}×100%, wherein,
Treating well for the test compound: represents the signal value of Ramos cells treated with anti-human immunoglobulin M, hydrogen peroxide and the test compound.
Control treating well for anti-human immunoglobulin M: represents the signal value of Ramos cells treated with anti-human immunoglobulin M, hydrogen peroxide but without the test compound. […]

Sequence of BTK recombinant protein (Q06187 whole entry): as above

Structure (SMILES)	IC50 (BTK recombinant protein) [nM]	IC50 [1] [nM]
COCCN1CCN(c2ccc(Nc3cc(-c4ccnc(-n5ccn6c7c(cc6c5=O)CC(C)(C)C7)c4CO)cn(C)c3=O)nc2)C(C)(C)C1 [Compound 226]	17	11
C[C@@H]1CN(c2ccc(Nc3cc(-c4ccnc(-n5ncn6c7c(cc6c5=O)CC(C)(C)C7)c4CO)cn(C)c3=O)nn2)[C@@H](C)CN1C1COC1 [Compound 209]	11	5
COC1CN(c2ccc(Nc3cc(-c4ccnc(-n5ccn6c7c(cc6c5=O)CC(C)(C)C7)c4CO)cn(C)c3=O)nn2)C1 [Compound 159]	6	26
Cc1cc(Nc2cc(-c3ccnc(-n4ccn5c6c(cc5c4=O)CC(C)(C)C6)c3CO)cn(C)c2=O)no1 [Compound 87]	11	3
Cn1cc(-c2ccnc(-n3ccn4c5c(cc4c3=O)CC(C)(C)C5)c2CO)cc(Nc2ccc(F)cn2)c1=O [Compound 90]	26	7
C[C@H]1CN(C2COC2)CCN1c1ccc(Nc2cc(-c3ccnc(-n4ncn5c(c(F)c6ccccc65)c4=O)c3CO)cn(C)c2=O)nc1 [Compound 149]	19	8
Cc1cc(Nc2cc(-c3ccnc(-n4ccn5c6c(cc5c4=O)CC(C)(C)C6)c3CO)cn(C)c2=O)ncn1 [Compound 54]	15	16
Cn1cc(-c2ccnc(-n3ccn4c5c(cc4c3=O)CC(C)(C)C5)c2CO)cc(Nc2cn(CC(F)(F)F)nn2)c1=O [Compound 30]	9	8
CN1CCn2nc(Nc3cc(-c4ccnc(-n5ccn6c7c(cc6c5=O)CC(C)(C)C7)c4CO)cn(C)c3=O)cc2C1=O [Compound 15]	17	12
CC1CCc2c(cc3c(=O)n(-c4nccc(-c5cc(Nc6ccc(N7CCN(C8COC8)C[C@@H]7C)cn6)c(=O)n(C)c5)c4CO)ccn23)C1 (mixture of isomers) [Compound 187]	14	28
CN(c1ccc(Nc2cc(-c3ccnc(-n4ccn5c6c(cc5c4=O)CC(C)(C)C6)c3CO)cn(C)c2=O)nc1)C1COC1 [Compound 41]	12	2
C[C@H]1CN(C#N)CCN1c1ccc(Nc2cc(-c3ccnc(-n4ccn5c6c(cc5c4=O)CC(C)(C)C6)c3CO)cn(C)c2=O)nc1 [Compound 108]	7	1
COCC(C)N1CCN(c2ccc(Nc3cc(-c4ccnc(-n5ncn6c7c(cc6c5=O)CC(C)(C)C7)c4CO)cn(C)c3=O)nc2)[C@@H](C)C1 (mixture of isomers) [Compound 219]	4	11
C[C@H]1CN(C2COC2)CCN1c1ccc(Nc2cc(-c3ccnc(-n4ncn5c6c(c(F)c5c4=O)CCCC6)c3CO)cn(C)c2=O)nc1 [Compound 186]	14	10
Cc1cc(Nc2cc(-c3ccnc(-n4ncn5c6c(cc5c4=O)CC(C)(C)C6)c3CO)cn(C)c2=O)no1 [Compound 192]	9	16
C[C@@H]1CN(c2ccc(Nc3cc(-c4ccnc(-n5ccn6c(c(F)c7cc(F)ccc76)c5=O)c4CO)cn(C)c3=O)nc2)[C@@H](C)CN1C1COC1 [Compound 61]	4	2
Cn1cc(-c2ccnc(-n3ncn4c5c(cc4c3=O)CC(C)(C)C5)c2CO)cc(Nc2ccc(C3CN(C4COC4)C3)cn2)c1=O [Compound 141]	14	13
CCn1cc(-c2ccnc(-n3ncn4c5c(cc4c3=O)CC(C)(C)C5)c2CO)cc(Nc2ccc(N3C[C@@H](C)N(C4COC4)C[C@@H]3C)cn2)c1=O [Compound 210]	21	19
C[C@H]1CN(C2COC2)CCN1c1ccc(Nc2cc(-c3ccnc(-n4ccn5c6c(c(F)c5c4=O)CCCC6)c3CO)cn(C)c2=O)nc1 [Compound 161]	4	7
Cn1cc(-c2ccnc(-n3ccn4c5c(cc4c3=O)CC(C)(C)C5)c2CO)cc(Nc2ccc(-c3ccc(C4COC4)cc3)cn2)c1=O [Compound 37]	132	11
C[C@H]1COCCN1c1ccc(Nc2cc(-c3ccnc(-n4ccn5c6c(cc5c4=O)CC(C)(C)C6)c3CO)cn(C)c2=O)nn1 [Compound 203]	< 1	7
CCn1cc(Nc2nc(-c3ccnc(-n4ccn5c6c(cc5c4=O)CC(C)(C)C6)c3CO)cn(C)c2=O)nn1 [Compound 3]	224	339
Cn1cc(-c2ccnc(-n3ccn4c5c(cc4c3=O)CC(C)(C)C5)c2CO)cc(Nc2ccc(N3CCC4(CCOC4)CC3)cn2)c1=O [Compound 233]	40	8
C[C@H]1CN(C2COC2)CCN1c1ccc(Nc2cc(-c3ccnc(-n4ccn5c6c(cc5c4=O)CC(C)(C)[C@@H]6O)c3CO)cn(C)c2=O)nc1 [Compound 198]	4	12
COCCN1CCn2nc(Nc3cc(-c4ccnc(-n5ccn6c7c(c(F)c6c5=O)CCCC7)c4CO)cn(C)c3=O)cc2C1 [Compound 167]	16	12
Cc1ccc(Nc2cc(-c3ccnc(-n4ncn5c6c(cc5c4=O)CC(C)(C)C6)c3CO)cn(C)c2=O)nn1 [Compound 132]	51	28
